Assay results as given in patent publication US20230146455A1, “TREATMENT OF INFLAMMATORY DISEASES WITH PEPTIDES AND PHARMACEUTICAL COMPOSITIONS” (Yuyu Pharma, Inc., priority 2020, published 2023).
Values joined by “and” are separate entries in the source; they are usually repeats but may differ in a detail not shown here. Identical values can stand only once. Where a SMILES comes first, the peptide text is derived from it. [ ]: non-standard residue; d: D form. Hyp = O=C(O)[C@@H]1C[C@@H](O)CN1

Test system: IL-4
Test: Example 9 Luminex, LPS hPBMCs: IL-4
Format: cell-based, human
Method: Treatment Human PBMCs were pretreated with YY-101, YDE-011 and YDE-043 or reference compound; Xiidra® at various concentration (ranging from 1 nM to 100 uM) for 2 h before stimulation. An equal volume of 0.5% DMSO was used as a vehicle control. Then, the cells were treated with LPS at 5 ug/ml. The supernatants from treated cells were harvested at 24 h and placed in a 96 well for Luminex cytokine & chemokine profiling using a Luminex 200 multiplex assay (Luminex; R&D system, USA).
The main study arm with triplicate wells per group in a 24-well plate: • 1. Blank • 2. PBMC: 0.5% DMSO • 3. PBMC+LPS (5 ug/ml) • 4. PBMC+YY-101 100 uM • 5. PBMC+YY-101 10 uM • 6. PBMC+YY-101 1 uM • 7. PBMC+YY-101 0.1 uM • 8. PBMC+YY-101 0.01 uM • 9. PBMC+LPS (5 ug/ml)+Xiidra®100 uM • 10. PBMC+LPS (5 ug/ml)+Xiidra® 10 uM • 11. PBMC+LPS (5 ug/ml)+Xiidra® 1 uM • 12. PBMC+LPS (5 ug/ml)+Xiidra®0.1 uM • 13. PBMC+LPS (5 ug/ml)+Xiidra®0.01 uM • 14. PBMC+LPS (5 ug/ml)+Xiidra®0.001 uM • 15. PBMC+LPS (5 ug/ml)+YY-101 100 uM • 16. PBMC+LPS (5 ug/ml)+YY-101 10 uM • 17. PBMC+LPS (5 ug/ml)+YY-101 1 uM • 18. PBMC+LPS (5 ug/ml)+YY-101 0.1 uM • 19. PBMC+LPS (5 ug/ml)+YY-101 0.01 uM • 20. PBMC+LPS (5 ug/ml)+YY-101 0.001 uM • 21. PBMC+LPS (5 ug/ml)+YDE-011 100 uM • 22. PBMC+LPS (5 ug/ml)+YDE-011 10 uM • 23. PBMC+LPS (5 ug/ml)+YDE-011 1 uM • 24. PBMC+LPS (5 ug/ml)+YDE-011 0.1 uM • 25. PBMC+LPS (5 ug/ml)+YDE-011 0.01 uM • 26. PBMC+LPS (5 ug/ml)+YDE-011 0.001 uM • 27. PBMC+LPS (5 ug/ml)+YDE-043 100 uM • 28. PBMC+LPS (5 ug/ml)+YDE-043 10 uM • 29. PBMC+LPS (5 ug/ml)+YDE-043 1 uM • 30. PBMC+LPS (5 ug/ml)+YDE-043 0.1 uM • 31. PBMC+LPS (5 ug/ml)+YDE-043 0.01 uM • 32. PBMC+LPS (5 ug/ml)+YDE-043 0.001 uM
Multiplex assay was used to measure 30 cytokines and chemokines. The 1:2, 1:10 and 1:200 diluted cell supernatant and serial dilution of the standard were dispensed into a 96 well plate at 50 ul/well. Then, the pre-mixed cocktail of antibody-coated magnetic beads was dispensed at 50 ul/well and incubated at room temperature for 2 h in a horizontal orbital microplate shaker at 800±500 rpm. The beads were washed using a magnetic device to prevent loss. The biotin-antibody was dispensed in 50 ul of each well and incubated at room temperature for 1 h in a shaker at 800±500 rpm. After washing, streptavidin-PE was added at 50 ul/well and incubated at room temperature for 30 min in a shaker under the same conditions. Finally, after washing, wash buffer (100 ul/well) was added to the plate and incubated in a shaker for 2 min. The Luminex™ 200 setting were set according to the manufacturer's protocol. The data was calculated with a standard five-parameter logistic nonlinear regression analysis of the data (xPonent software 4.2, USA). The levels of cytokine/chemokine are normalized to the live cell counts (1×10^5 cells/mL) and presented as concentrations per mL (pg/mL or ng/mL).

[1] = PBMC + LPS(5 ug/ml) + test article 0.001 uM, Mean
[2] = PBMC + LPS(5 ug/ml) + test article 0.001 uM, single replicates
[3] = PBMC + LPS(5 ug/ml) + test article 0.01 uM, Mean
[4] = PBMC + LPS(5 ug/ml) + test article 0.01 uM, single replicates
[5] = PBMC + LPS(5 ug/ml) + test article 0.1 uM, Mean
[6] = PBMC + LPS(5 ug/ml) + test article 0.1 uM, single replicates
[7] = PBMC + LPS(5 ug/ml) + test article 1 uM, Mean
[8] = PBMC + LPS(5 ug/ml) + test article 1 uM, single replicates
[9] = PBMC + LPS(5 ug/ml) + test article 10 uM, Mean
[10] = PBMC + LPS(5 ug/ml) + test article 10 uM, single replicates
[11] = PBMC + LPS(5 ug/ml) + test article 100 uM, Mean
[12] = PBMC + LPS(5 ug/ml) + test article 100 uM, single replicates

| SMILES | Concentration, Bead name: IL-4 [1] [pg/mL] | MFI, Bead name: IL-4 [1] | conc/live cell, Bead name: IL-4 [1] [pg/10^5] | Concentration, Bead name: IL-4 [2] | MFI, Bead name: IL-4 [2] | conc/live cell, Bead name: IL-4 [2] | Concentration, Bead name: IL-4 [3] [pg/mL] | MFI, Bead name: IL-4 [3] | conc/live cell, Bead name: IL-4 [3] [pg/10^5] | Concentration, Bead name: IL-4 [4] | MFI, Bead name: IL-4 [4] | conc/live cell, Bead name: IL-4 [4] | Concentration, Bead name: IL-4 [5] [pg/mL] | MFI, Bead name: IL-4 [5] | conc/live cell, Bead name: IL-4 [5] [pg/10^5] | Concentration, Bead name: IL-4 [6] | MFI, Bead name: IL-4 [6] | conc/live cell, Bead name: IL-4 [6] | Concentration, Bead name: IL-4 [7] [pg/mL] | MFI, Bead name: IL-4 [7] | also measured |
| --- | --- | --- | --- | --- | --- | --- | --- | --- | --- | --- | --- | --- | --- | --- | --- | --- | --- | --- | --- | --- | --- |
| CC(C)C[C@H](NC(=O)[C@H](CCC(N)=O)NC(=O)CNC(=O)[C@@H]1C[C@@H](O)CN1)C(=O)NCC(=O)O [YDE-043] (H-[Hyp]GQLG-OH; N-terminus and C-terminus assumed) | 26.0 | 1.0 | 5.2 | 26.4 pg/mL and 33.2 pg/mL and 18.4 pg/mL | 1.0 and 2.0 and 0.0 | 6.0 pg/10^5 and 5.5 pg/10^5 and 4.0 pg/10^5 | 11.3 | −0.7 | 2.2 | 7.7 pg/ml (2×) and 18.4 pg/ml | −1.0 (2×) and 0.0 | 1.7 pg/10^5 and 1.2 pg/10^5 and 3.7 pg/10^5 | 17.5 | 0.0 | 3.3 | 26.4 pg/mL and 18.4 pg/mL and 7.7 pg/mL | 1.0 and 0.0 and −1.0 | 5.3 pg/10^5 and 3.3 pg/10^5 and 1.4 pg/10^5 | 26.4 | 0.2 | conc/live cell, Bead name: IL-4 [7]: 3.5 pg/10^5; Concentration, Bead name: IL-4 [8]: 26.4 pg/mL; MFI, Bead name: IL-4 [8]: −1.5 and 1.0 (2×); conc/live cell, Bead name: IL-4 [8]: 0.0 pg/10^5 and 5.5 pg/10^5 and 5.0 pg/10^5; Concentration, Bead name: IL-4 [9]: 14.8 pg/mL; MFI, Bead name: IL-4 [9]: −0.3; conc/live cell, Bead name: IL-4 [9]: 2.7 pg/10^5; Concentration, Bead name: IL-4 [10]: 18.4 pg/ml (2×) and 7.7 pg/ml; MFI, Bead name: IL-4 [10]: 0.0 (2×) and −1.0; conc/live cell, Bead name: IL-4 [10]: 3.5 pg/10^5 and 1.4 pg/10^5 and 3.3 pg/10^5; Concentration, Bead name: IL-4 [11]: 7.7 pg/mL; MFI, Bead name: IL-4 [11]: −1.0; conc/live cell, Bead name: IL-4 [11]: 1.2 pg/10^5; Concentration, Bead name: IL-4 [12]: 7.7 pg/mL; MFI, Bead name: IL-4 [12]: −1.0; conc/live cell, Bead name: IL-4 [12]: 1.2 pg/10^5 |
| CC(C)C[C@H](NC(=O)CNC(=O)[C@H](CC(C)C)NC(=O)[C@H](CCC(N)=O)NC(=O)CNC(=O)[C@@H]1C[C@@H](O)CN1)C(=O)N[C@@H](C)C(=O)NCC(=O)N1CCC[C@H]1C(=O)N[C@@H](CCCCN)C(=O)O [YDE-011] (H-[Hyp]GQLGLAGPK-OH) | 13.2 | −0.5 | 2.6 | 18.4 pg/mL and 7.7 pg/mL and 13.6 pg/mL | 0.0 and −1.0 and −0.5 | 4.1 pg/10^5 and 1.3 pg/10^5 and 2.3 pg/10^5 | 23.7 | 0.7 | 4.1 | 18.4 pg/ml and 26.4 pg/ml (2×) | 0.0 and 1.0 (2×) | 2.9 pg/10^5 and 4.3 pg/10^5 and 5.2 pg/10^5 | 22.4 | −0.3 | 2.5 | 18.4 pg/mL and 26.4 pg/mL | 0.0 and −2.0 and 1.0 | 2.8 pg/10^5 and 0.0 pg/10^5 and 4.6 pg/10^5 | 18.4 | −0.5 | conc/live cell, Bead name: IL-4 [7]: 2.4 pg/10^5; Concentration, Bead name: IL-4 [8]: 18.4 pg/mL; MFI, Bead name: IL-4 [8]: 0.0 (2×) and −1.5; conc/live cell, Bead name: IL-4 [8]: 3.3 pg/10^5 and 0.0 pg/10^5 and 3.8 pg/10^5; Concentration, Bead name: IL-4 [9]: 16.8 pg/mL; MFI, Bead name: IL-4 [9]: −0.2; conc/live cell, Bead name: IL-4 [9]: 3.2 pg/10^5; Concentration, Bead name: IL-4 [10]: 18.4 pg/ml (2×) and 13.6 pg/ml; MFI, Bead name: IL-4 [10]: 0.0 (2×) and −0.5; conc/live cell, Bead name: IL-4 [10]: 3.4 pg/10^5 and 2.3 pg/10^5 and 3.9 pg/10^5; Concentration, Bead name: IL-4 [11]: 7.7 pg/mL; MFI, Bead name: IL-4 [11]: −1.2; conc/live cell, Bead name: IL-4 [11]: 0.8 pg/10^5; Concentration, Bead name: IL-4 [12]: 7.7 pg/mL; MFI, Bead name: IL-4 [12]: −1.0 (2×) and −1.5; conc/live cell, Bead name: IL-4 [12]: 1.3 pg/10^5 (2×) and 0.0 pg/10^5 |
